Data on six molecules can be found in US10414811B2, “Protease-resistant lipidated GLP-1 analogs” (MEDIMMUNE LIMITED, priority 2015, dated 2019).

Structures are written as SMILES. Read-outs that look alike come from different tables or passages of the source. Numbered stars: 1 amine (or outer) side, 2 acyl side, 3 side chain; on linkers, the order of the positions; unused ones are H or OH. Square brackets hold non-standard residues; d marks the D form. Side chains are listed from the residue outwards. Peptide text beside a SMILES is read from it. * marks the point of attachment. γGlu = O=C(O)[C@H](CCC(=O)[*:2])N[*:1]; αMeF = C[C@](N)(Cc1ccccc1)C(=O)O; αMeK = C[C@](N)(CCCCN)C(=O)O; Lauroyl = CCCCCCCCCCCC(=O)*; αMeS = C[C@](N)(CO)C(=O)O; AEEA = NCCOCCOCC(=O)O; Aib = CC(C)(N)C(=O)O Some results are limits rather than exact numbers.

What all share (type): cell-based
For assay [1], the target named is T1, human glucose-dependent insulinotropic peptide receptor (GIPR) (Homo sapiens, UniProt P48546).
T1 construct: expressed in transfected cells
T1 sequence (P48546 22-466): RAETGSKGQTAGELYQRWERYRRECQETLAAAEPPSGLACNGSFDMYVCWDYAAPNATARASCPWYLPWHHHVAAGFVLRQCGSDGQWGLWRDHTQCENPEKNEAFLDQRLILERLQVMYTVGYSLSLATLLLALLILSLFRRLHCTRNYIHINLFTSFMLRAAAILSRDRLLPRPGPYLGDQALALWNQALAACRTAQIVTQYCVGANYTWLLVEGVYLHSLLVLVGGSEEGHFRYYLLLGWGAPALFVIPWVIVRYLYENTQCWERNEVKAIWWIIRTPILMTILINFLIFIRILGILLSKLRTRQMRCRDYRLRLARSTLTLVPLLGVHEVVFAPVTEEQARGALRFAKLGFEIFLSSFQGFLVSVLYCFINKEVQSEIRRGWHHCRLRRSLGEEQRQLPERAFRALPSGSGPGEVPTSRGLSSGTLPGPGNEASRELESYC
The experiment in a line: cAMP assay, human GIPR cells. The procedure, abridged: (§1)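 Peptide-stimulated cAMP measured by two-step HTRF after a 30 min room-temperature incubation with receptor-expressing cells (hGLP-1R, hGIPR at 1×10^5 cells/ml; hGCGR at 2×10^5 cells/ml). Duplicate dilutions; EC50 from 4-parameter logistic fit of % Delta F.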
(Cyclic AMP is a second messenger, typically raised through Gs and lowered through Gi signalling.)

For assay [2], the target named is T2, human GLP-1 receptor (GLP-1R) (Homo sapiens, UniProt P43220).
T2 construct: expressed in transfected cells
As to the kind of experiment: cAMP assay, human GLP-1R cells. The procedure, abridged: as §1

In assay [3] the target is T3, human glucagon receptor (GCGR) (Homo sapiens, UniProt P47871).
T3 construct: expressed in transfected cells
The experiment in a line: cAMP assay, human GCGR cells. A digest of the protocol:
as §1

Setting [4] is: tris-lipidated peptides, mean of n1 and n2, read-out: Primary assay EC50 Mean pM GLP-1R.
Where [5] appears, read: tris-lipidated peptides, replicate n1, read-out: Primary assay EC50 GLP-1R n1.
The mark [6] stands for this setting: tris-lipidated peptides, replicate n2, read-out: Primary assay EC50 GLP-1R n2.
Where [7] appears, read: tris-lipidated peptides, first replicate, read-out: Primary assay EC50 Gluc-R (n1).
Where [8] appears, read: cAMP assay, first determination (n1), read-out: Primary assay EC50 GIP-R (n1).
Where [9] appears, read: cAMP assay, second determination (n2), read-out: Primary assay EC50 GIP-R (n2).
The mark [10] stands for this setting: cAMP assay, first determination (n1), read-out: Primary assay EC50 GLP-1R n1.
Where [11] appears, read: cAMP assay, first determination (n1), read-out: Primary assay EC50 Gluc-R (n1).
Setting [12] is: cAMP assay, second determination (n2), read-out: Primary assay EC50 Gluc-R (n2).
[13] abbreviates: cAMP assay, second determination (n2), read-out: Primary assay EC50 GLP-1R n2.
[14] abbreviates: mean of n1 and n2, read-out: Mean pM GLP-1R.

T2 sequence (P43220 24-463): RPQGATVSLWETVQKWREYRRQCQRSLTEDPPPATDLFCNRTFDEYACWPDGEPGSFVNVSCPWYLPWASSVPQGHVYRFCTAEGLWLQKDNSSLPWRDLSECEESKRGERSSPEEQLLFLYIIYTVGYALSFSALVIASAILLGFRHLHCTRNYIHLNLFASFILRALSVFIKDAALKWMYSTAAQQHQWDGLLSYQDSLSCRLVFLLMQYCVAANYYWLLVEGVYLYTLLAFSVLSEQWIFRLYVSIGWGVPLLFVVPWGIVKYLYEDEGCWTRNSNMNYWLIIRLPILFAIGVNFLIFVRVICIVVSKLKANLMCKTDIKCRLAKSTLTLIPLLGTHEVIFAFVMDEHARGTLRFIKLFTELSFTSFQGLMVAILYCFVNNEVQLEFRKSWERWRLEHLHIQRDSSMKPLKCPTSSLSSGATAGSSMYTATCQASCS
T3 sequence (P47871 26-477): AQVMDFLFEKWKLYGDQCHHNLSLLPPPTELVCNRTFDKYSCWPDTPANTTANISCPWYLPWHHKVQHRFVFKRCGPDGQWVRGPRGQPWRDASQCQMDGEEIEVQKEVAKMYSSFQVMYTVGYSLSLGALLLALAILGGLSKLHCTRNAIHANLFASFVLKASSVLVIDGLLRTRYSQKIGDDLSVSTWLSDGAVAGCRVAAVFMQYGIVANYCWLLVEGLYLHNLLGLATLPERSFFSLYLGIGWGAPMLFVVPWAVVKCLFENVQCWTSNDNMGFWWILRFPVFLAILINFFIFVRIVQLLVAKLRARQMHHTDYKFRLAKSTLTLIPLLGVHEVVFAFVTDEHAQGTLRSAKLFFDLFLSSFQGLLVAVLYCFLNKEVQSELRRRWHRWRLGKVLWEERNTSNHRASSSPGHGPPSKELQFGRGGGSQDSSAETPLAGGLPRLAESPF

Turning to `CCCCCCCCCCCC(=O)N[C@@H](CCC(=O)NCCOCCOCC(=O)NCCOCCOCC(=O)NCCCC[C@H](NC(=O)[C@H](CCC(=O)O)NC(=O)[C@H](CC(C)C)NC(=O)[C@H](Cc1ccc(O)cc1)NC(=O)[C@H](CO)NC(=O)[C@H](CO)NC(=O)[C@H](CCCCNC(=O)COCCOCCNC(=O)COCCOCCNC(=O)CC[C@H](NC(=O)CCCCCCCCCCC)C(=O)O)NC(=O)[C@H](CC(=O)O)NC(=O)[C@H](CO)NC(=O)[C@@H](NC(=O)[C@](C)(Cc1ccccc1)NC(=O)[C@H](CO)NC(=O)CNC(=O)[C@H](CCC(=O)O)NC(=O)C(C)(C)NC(=O)[C@@H](N)Cc1c[nH]cn1)[C@@H](C)O)C(=O)N[C@@H](CCC(=O)O)C(=O)N[C@@H](C)C(=O)N[C@@H](C)C(=O)N[C@@](C)(CCCCN)C(=O)N[C@@H](CCC(=O)O)C(=O)N[C@@H](Cc1ccccc1)C(=O)N[C@H](C(=O)N[C@@H](C)C(=O)N[C@@H](Cc1ccccc1)C(=O)N[C@@H](CCCCNC(=O)COCCOCCNC(=O)COCCOCCNC(=O)CC[C@H](NC(=O)CCCCCCCCCCC)C(=O)O)C(=O)N[C@H](C(=O)N[C@@H](CCC(=O)O)C(=O)NCC(=O)NCC(N)=O)C(C)C)[C@@H](C)CC)C(=O)O` [compound 471] (H-H[Aib]EGS[αMeF]TSDK([AEEA-AEEA-γGlu-Lauroyl])SSYLEK([AEEA-AEEA-γGlu-Lauroyl])EAA[αMeK]EFIAFK([AEEA-AEEA-γGlu-Lauroyl])VEGG-NH2), the EC50 in assay [1] (tris-lipidated peptides, first replicate, read-out: Primary assay EC50 GIP-R (n1)) is at least 19.6 nM; in assay [2] (setting [4]), 374 pM; in assay [2] (setting [5]), 277 pM; in assay [2] (setting [6]) it was 470 pM; in assay [3] (setting [7]), at least 19.6 nM.
As for `CC[C@H](C)[C@H](NC(=O)[C@](C)(Cc1ccccc1)NC(=O)[C@H](CCC(=O)O)NC(=O)[C@H](CCCCNC(=O)CC[C@H](NC(=O)CC[C@H](NC(=O)CC[C@H](NC(=O)CCCCCCCCCCCCCCCCC(=O)O)C(=O)O)C(=O)O)C(=O)O)NC(=O)[C@H](C)NC(=O)[C@H](C)NC(=O)[C@H](CCC(=O)O)NC(=O)CNC(=O)[C@H](CCC(=O)O)NC(=O)[C@H](CC(C)C)NC(=O)[C@](C)(Cc1ccccc1)NC(=O)[C@H](CO)NC(=O)[C@](C)(CO)NC(=O)[C@@H](NC(=O)[C@H](CC(=O)O)NC(=O)[C@H](CO)NC(=O)[C@@H](NC(=O)[C@](C)(Cc1ccccc1)NC(=O)[C@H](CO)NC(=O)CNC(=O)[C@H](CCC(=O)O)NC(=O)C(C)(C)NC(=O)[C@@H](N)Cc1c[nH]cn1)[C@@H](C)O)C(C)C)C(=O)N[C@@H](C)C(=O)N[C@@](C)(Cc1ccccc1)C(=O)N[C@H](C(=O)N[C@H](C(=O)N[C@@](C)(CCCCN)C(=O)NCC(=O)NCC(N)=O)C(C)C)C(C)C` [compound 157], the EC50 in assay [1] (setting [8]) is at least 26 nM; in assay [1] (setting [9]), at least 26 nM; in assay [2] (setting [10]), 240 pM; in assay [3] (setting [11]) it was at least 26 nM; in assay [3] (setting [12]), at least 26 nM.
Take `CCCCCCCCCCCCCCCCCC(=O)N[C@@H](CCC(=O)N[C@@H](CCC(=O)NCCCC[C@H](NC(=O)[C@H](C)NC(=O)[C@H](C)NC(=O)[C@H](CCC(=O)O)NC(=O)CNC(=O)[C@H](CCC(=O)O)NC(=O)[C@H](CC(C)C)NC(=O)[C@](C)(Cc1ccccc1)NC(=O)[C@H](CO)NC(=O)[C@](C)(CO)NC(=O)[C@@H](NC(=O)[C@H](CC(=O)O)NC(=O)[C@H](CO)NC(=O)[C@@H](NC(=O)[C@](C)(Cc1ccccc1)NC(=O)[C@H](CO)NC(=O)CNC(=O)[C@H](CCC(=O)O)NC(=O)C(C)(C)NC(=O)[C@@H](N)Cc1c[nH]cn1)[C@@H](C)O)C(C)C)C(=O)N[C@@H](CCC(=O)O)C(=O)N[C@@](C)(Cc1ccccc1)C(=O)N[C@H](C(=O)N[C@@H](C)C(=O)N[C@@](C)(Cc1ccccc1)C(=O)N[C@H](C(=O)N[C@H](C(=O)N[C@@](C)(CCCCN)C(=O)NCC(=O)NCC(N)=O)C(C)C)C(C)C)[C@@H](C)CC)C(=O)O)C(=O)O` [compound 147]: the EC50 in assay [1] (setting [8]) was at least 27 nM; in assay [1] (setting [9]), at least 27 nM; in assay [2] (setting [10]), 32 pM; in assay [2] (setting [13]), 14 pM; in assay [2] (setting [14]), 23.2 pM; in assay [3] (setting [11]), at least 27 nM. Besides, the EC50 in assay [3] (setting [12]) is at least 27 nM.
Regarding `CCCCCCCCCCCC(=O)N[C@@H](CCC(=O)NCCOCCOCC(=O)NCCOCCOCC(=O)NCCCC[C@H](NC(=O)[C@H](CCC(=O)O)NC(=O)[C@H](CC(C)C)NC(=O)[C@H](CCCCNC(=O)COCCOCCNC(=O)COCCOCCNC(=O)CC[C@H](NC(=O)CCCCCCCCCCC)C(=O)O)NC(=O)[C@H](CO)NC(=O)[C@](C)(CO)NC(=O)[C@@H](NC(=O)[C@H](CC(=O)O)NC(=O)[C@H](CO)NC(=O)[C@@H](NC(=O)[C@](C)(Cc1ccccc1)NC(=O)[C@H](CO)NC(=O)CNC(=O)[C@H](CCC(=O)O)NC(=O)C(C)(C)NC(=O)[C@@H](N)Cc1c[nH]cn1)[C@@H](C)O)C(C)C)C(=O)N[C@@H](CCC(=O)O)C(=O)N[C@@H](C)C(=O)N[C@@H](C)C(=O)N[C@@](C)(CCCCN)C(=O)N[C@@H](CCC(=O)O)C(=O)N[C@@H](Cc1ccccc1)C(=O)N[C@H](C(=O)N[C@@H](C)C(=O)N[C@@H](Cc1ccccc1)C(=O)N[C@@H](CCCCNC(=O)COCCOCCNC(=O)COCCOCCNC(=O)CC[C@H](NC(=O)CCCCCCCCCCC)C(=O)O)C(=O)N[C@H](C(=O)N[C@@H](CCC(=O)O)C(=O)NCC(=O)NCC(N)=O)C(C)C)[C@@H](C)CC)C(=O)O` [compound 479] (H-H[Aib]EGS[αMeF]TSDV[αMeS]SK([AEEA-AEEA-γGlu-Lauroyl])LEK([AEEA-AEEA-γGlu-Lauroyl])EAA[αMeK]EFIAFK([AEEA-AEEA-γGlu-Lauroyl])VEGG-NH2), the EC50 came out at 19.8 nM in assay [1] (tris-lipidated peptides, second replicate, read-out: Primary assay EC50 GIP-R (n2)); 186 pM in assay [2] (setting [4]); 132 pM in assay [2] (setting [5]); 239 pM in assay [2] (setting [6]); 19.8 nM in assay [3] (setting [7]).
Regarding `CC[C@H](C)[C@H](NC(=O)[C@](C)(Cc1ccccc1)NC(=O)[C@H](CCC(=O)O)NC(=O)[C@H](CCCCNC(=O)COCCOCCNC(=O)COCCOCCNC(=O)COCCOCCNC(=O)CCCCCCCCCCCCCCCCC(=O)O)NC(=O)[C@H](C)NC(=O)[C@H](C)NC(=O)[C@H](CCC(=O)O)NC(=O)CNC(=O)[C@H](CCC(=O)O)NC(=O)[C@H](CC(C)C)NC(=O)[C@](C)(Cc1ccccc1)NC(=O)[C@H](CO)NC(=O)[C@](C)(CO)NC(=O)[C@@H](NC(=O)[C@H](CC(=O)O)NC(=O)[C@H](CO)NC(=O)[C@@H](NC(=O)[C@](C)(Cc1ccccc1)NC(=O)[C@H](CO)NC(=O)CNC(=O)[C@H](CCC(=O)O)NC(=O)C(C)(C)NC(=O)[C@@H](N)Cc1c[nH]cn1)[C@@H](C)O)C(C)C)C(=O)N[C@@H](C)C(=O)N[C@@](C)(Cc1ccccc1)C(=O)N[C@H](C(=O)N[C@H](C(=O)N[C@@](C)(CCCCN)C(=O)NCC(=O)NCC(N)=O)C(C)C)C(C)C` [compound 163], the EC50 in assay [1] (setting [8]) is at least 25 nM; in assay [1] (setting [9]) it was at least 25 nM; in assay [2] (setting [10]), 63 pM; in assay [2] (setting [13]), 49 pM; in assay [2] (setting [14]) it was 56 pM; in assay [3] (setting [11]), at least 25 nM. Besides, the EC50 in assay [3] (setting [12]) is at least 25 nM.
`CCCCCCCCCCCCCCCC(=O)N[C@@H](CCC(=O)NCCCC[C@H](NC(=O)[C@H](CO)NC(=O)CNC(=O)[C@H](CCC(=O)O)NC(=O)C(C)(C)NC(=O)[C@@H](N)Cc1c[nH]cn1)C(=O)N[C@H](C(=O)N[C@@H](CO)C(=O)N[C@@H](CC(=O)O)C(=O)N[C@H](C(=O)N[C@@](C)(CO)C(=O)N[C@@H](CO)C(=O)N[C@@](C)(Cc1ccccc1)C(=O)N[C@@H](CC(C)C)C(=O)N[C@@H](CCC(=O)O)C(=O)NCC(=O)N[C@@H](CCC(=O)O)C(=O)N[C@@H](C)C(=O)N[C@@H](C)C(=O)N[C@@](C)(CCCCN)C(=O)N[C@@H](CCC(=O)O)C(=O)N[C@@](C)(Cc1ccccc1)C(=O)N[C@H](C(=O)N[C@@H](C)C(=O)N[C@@](C)(Cc1ccccc1)C(=O)N[C@H](C(=O)N[C@H](C(=O)N[C@@](C)(CCCCN)C(=O)NCC(=O)NCC(N)=O)C(C)C)C(C)C)[C@@H](C)CC)C(C)C)[C@@H](C)O)C(=O)O` [compound 94]: the EC50 in assay [1] (setting [8]) is at least 28 nM; in assay [1] (setting [9]), at least 28 nM; in assay [2] (setting [10]) it was 140 pM; in assay [2] (setting [13]) it was 320 pM; in assay [2] (setting [14]), 228 pM; in assay [3] (setting [11]), at least 28 nM. The EC50 in assay [3] (setting [12]) is at least 28 nM.
